Literature values in patent US7625410B2, “Stent device and method” (Boston Scientific Scimed, Inc., priority 2001, dated 2009).

Assays:
[1] = tested on: human and rat aortic smooth muscle cells and endothelial cell proliferation
[2] = not given; remark: listed apart in the source

halflife (assumed value used for the estimate of systemic dosage): 12 h | solubility in organic solvents ([2]; chloroform, ethylacetate acetone, and ethanol): soluble | solubility in water ([2]; water): practically insoluble in water
SMILES: C=CC[C@@H]1/C=C(\C)C[C@H](C)C[C@H](OC)[C@H]2O[C@@](O)(C(=O)C(=O)N3CCCC[C@H]3C(=O)O[C@H](/C(C)=C/[C@@H]3CC[C@@H](O)[C@H](OC)C3)[C@H](C)[C@@H](O)CC1=O)[C@H](C)C[C@@H]2OC [tacrolimus]
antiproliferative properties on vascular cells ([1]; human and rat aortic smooth muscle cells and endothelial cells): very modest antiproliferative properties | transition to the secretory smooth muscle cell type ([1]; smooth muscle cells, type responsible for the restenosis build up): practically totally inhibited | distribution in the blood (blood): primarily intracellular in red blood cells | binding in the plasma (plasma): bound to α-1 sour glycoproteins and albumins
